Test results from patent US7514245B2, “Method for producing chiral α-hydroxycarboxylic acids by enzymatic hydrolysis of chiral cyanohydrins” (DSM Fine Chemicals Austria NFG GmbH & Co. KG, priority 2003, dated 2009).

Tests used:
[1] = system: Rhodococcus erythropolis NCIMB 11540 cells; test: Enzymatic hydrolysis at different temperatures, Experiment 6.1; format: cell-based; details: after 2 h, 10 g/l, 5% DMSO
Experimental: In Experiment 6.1, the course of the reaction was compared at reaction temperatures of 30° C., 35° C. and 40° C. The batches were carried out on a 5 ml scale using a substrate concentration of 10 g/l of (R)-2-chloromandelonitrile. After complete reaction, the ee of the product was determined.
The biocatalyst was produced according to Example 4, Experiment 4.2 (OD546 8.4). In each case 4.75 ml of the cell suspension (resting cells, OD546 52) were used for the enzymatic reactions. Reactions of 50 mg of (R)-2-chloromandelonitrile (>99%) ([S]=60 mM, 10 g/l), dissolved in 250 μl of DMSO (5%) were carried out at 3 different temperatures (30° C., 35° C., 40° C.) in culture tubes at 150 rpm (parallel batches).
(§1) To monitor the conversion rate by means of HPLC, in each case 200 μl of sample were admixed with 200 μl of 1N HCl, centrifuged (5 min, 13 000 rpm) and diluted before measurement. After complete reaction, the ee of the product was determined.

[2] = system: Rhodococcus erythropolis NCIMB 11540 cells; test: Enzymatic hydrolysis using different cosolvents, Experiment 5.2; format: cell-based; details: 10 g/l, 30° C.
Experimental: Here, the solvents DMSO, EtOH and ^iPrOH were again used at a fraction of 5%; the substrate concentration was 10 g/l of (R)-2-chloromandelonitrile. The reaction was carried out on a 5 ml scale.
Production of the biocatalyst Example 4, Experiment 4.2 (OD546 8.4). In each case 4.75 ml of the cell suspension (resting cells, OD546 52) were used for the enzymatic reactions. Reactions of (R)-2-chloromandelonitrile (>99%) dissolved in DMSO, EtOH and i-PrOH were carried out in culture tubes at 150 rpm and 30° C. (parallel batches).
as §1, with “conversion,” for “reaction,”, “determined. • a. 50 mg of (R)-2-chloromandelonitrile, dissolved in 250 μl of DMSO ([S]=60 mM, 10 g/l, cosolvent: 5% DMSO)” for “determined.”

[3] = system: Rhodococcus erythropolis NCIMB 11540 cells; test: Enzymatic hydrolysis at different temperatures, Experiment 6.2; format: cell-based; details: after 2 h, 10 g/l, 3% DMSO
Experimental: In Experiment 6.2, the temperature was increased to 50° C.
The biocatalyst was produced according to Example 4, Experiment 4.3 (OD546 44). In each case 4.85 ml of the cell suspension (resting cells, OD546 44) were used for the enzymatic reactions. Reactions of 50 mg of (R)-2-chloromandelonitrile (>99%) ([S]=60 mM, 10 g/l), dissolved in 150 μl DMSO (3%) were carried out at 3 different temperatures (30° C., 40° C., 50° C.) in culture tubes at 150 rpm (parallel batches).
as §1

[4] = system: Rhodococcus erythropolis NCIMB 11540 cells; test: Enzymatic hydrolysis using resting cells and lyophilized cells (Example 3); format: cell-based; details: approximately 20 mM substrate, 30° C.
Experimental: The biocatalyst was produced in a similar manner to Example 1, Variant I, 2 culture flasks. After 20 hours (OD546=3.5 and 1.8), cells were centrifuged off from 4 times 10 ml aliquots of fermentation broth and washed once with K/Na—PO4 buffer (pH 6.5, 50 mM). Two of the cell samples were lyophilized before activity determination, and the other two were used as resting cells.
The cells were resuspended in 1.8 ml K/Na—PO4 buffer (pH 6.5, 50 mM) (lyophilized cells were shaken for 1 h for rehydration). The reaction was started by adding 200 μl of a 200 mM substrate solution in DMSO (substrate concentration approximately 20 mM) and carried out at 30° C. and 130 rpm in the shaking cabinet. After 30 min, 60 min and 17 h, 200 μl were withdrawn and admixed with 200 μl of 1N HCl. After centrifugation (5 min, 13 000 rpm) and dilution, the conversion rates were determined by means of HPLC. Only the substrate and the two products were taken into consideration in this. The substrate used was (R)-2-chloromandelonitrile (ee>99%). The results are shown in Tab. 3.

[5] = system: Rhodococcus erythropolis NCIMB 11540 cells; test: Enzymatic hydrolysis at different substrate concentrations, Experiment 4.2; format: cell-based; details: 5% DMSO, 30° C., resting cells
Experimental: In experiment 4.2, the reaction was carried out using 2 different substrate concentrations (10 g/l, 20 g/l) on a 5 ml scale.
The biocatalyst was produced according to Example 1, Variant II, 2 l fermentation medium, harvest after 19 hours (OD546 8.4). The cells were resuspended in approximately 140 ml of buffer (resting cells, OD546 52). In each case 4.75 ml of this cell suspension were used for the enzymatic reactions.
Two different concentrations of (R)-2-chloromandelonitrile were studied in parallel batches. The reaction was started by adding 250 μl of substrate solution and was carried out in culture tubes in the shaking cabinet at 30° C. and 130 rpm. To monitor the conversion rate, in each case 200 μl were withdrawn and admixed with 200 μl of 1N HCl. After centrifugation (5 min, 13 000 rpm) and dilution, the conversion rates were determined by HPLC. • a. 50 mg of (R)-2-chloromandelonitrile, dissolved in 250 μl of DMSO ([S]=60 mM, 10 g/l, cosolvent: 5% DMSO)

[6] = system: Rhodococcus erythropolis NCIMB 11540 cells; test: Enzymatic hydrolysis at different substrate concentrations, Experiment 4.3; format: cell-based; details: after 2 h, 3% DMSO, 40° C., resting cells
Experimental: In experiment 4.3, reactions were carried out using 10 g/l and 15 g/l of (R)-2-chloromandelonitrile. In addition, after complete conversion, the ee of the hydroxy acid formed was determined.
The biocatalyst was produced according to Example 1, Variant II, 2.75 l of the fermentation medium, harvest after 20 hours. The cells were resuspended in approximately 200 ml of buffer (resting cells, OD546 44). In each case 4.85 ml of this cell suspension were used for the enzymatic reactions.
Two different concentrations of (R)-2-chloromandelonitrile were studied in parallel batches. The reaction was started by adding 150 μl of substrate solution and was carried out in culture tubes in the shaking cabinet at 40° C. and 150 rpm. The conversion rate was monitored by means of HPLC. At complete conversion, the hydroxy acid was extracted after acidification and the ee was determined. • a. 50 mg of (R)-2-chloromandelonitrile, dissolved in 150 μl of DMSO ([S]=60 mM, 10 g/l, cosolvent: 3% DMSO)

[7] = molecular target: T1, Rhodococcus erythropolis NCIMB 11540 nitrile hydratase (Rhodococcus erythropolis, UniProt P13448+P13449); test: Nitrile hydratase activity determination of crude lysates with methacrylonitrile; format: biochemical; details: 40 mM methacrylonitrile in PBS, 28° C.
T1 construct: made in house; host or cells: E. coli B BL21 (plasmid pMS470Nhase7.3 or pMSNhasetactac7.3), crude lysate
T1 sequence (P13448 1-207): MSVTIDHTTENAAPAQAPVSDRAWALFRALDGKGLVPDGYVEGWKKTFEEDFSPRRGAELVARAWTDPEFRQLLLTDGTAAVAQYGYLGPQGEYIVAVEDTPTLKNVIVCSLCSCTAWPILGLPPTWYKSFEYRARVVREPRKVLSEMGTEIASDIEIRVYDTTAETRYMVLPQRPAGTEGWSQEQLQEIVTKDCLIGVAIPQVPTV
T1 sequence (P13449 1-212): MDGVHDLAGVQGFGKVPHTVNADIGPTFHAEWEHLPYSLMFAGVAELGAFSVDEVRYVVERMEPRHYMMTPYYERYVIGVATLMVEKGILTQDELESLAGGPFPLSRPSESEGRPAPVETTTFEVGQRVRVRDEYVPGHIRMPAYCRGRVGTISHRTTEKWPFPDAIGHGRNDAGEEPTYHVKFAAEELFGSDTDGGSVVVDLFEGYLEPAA
Experimental: The E. coli B BL21 cells transformed by pMS470Nhase7.3 (or pMSNhasetactac7.3) were isolated on LB-ampicillin plates and an ONC of 100 ml of LB-ampicillin medium was inoculated with an individual colony. On the next morning a main culture consisting of 250 ml of LB-ampicillin medium was inoculated in a 1000 ml chicane flask to an OD600 of 0.01 to 0.03 (Beckmann Photometer). The growth temperature was controlled at 25° C., since at higher temperatures insoluble inclusion bodies are formed exclusively. After the induction density was reached (OD600=1 Beckmann Photometer), the cultures were induced by adding IPTG to give a concentration of 0.1 mM. In addition, the media were supplemented with 0.1 mM ammonium iron(III) citrate. After reaching an OD600>4, the cultures were harvested (centrifugation at approximately 3000-g for 15 min) and washed once with approximately 100 ml of PBS buffer. […]
Activity determination: crude lysates were diluted 1:10 with PBS buffer immediately before activity determination. […] After centrifugation (16 000·g, 10 minutes), the samples were analyzed spectrophotometrically at 224 nm (Perkin Elmer UV/VIS Spectrometer Lambda Bio). […]

[8] = lyophilized cells (19 mg/ml), 30 min
[9] = lyophilized cells (19 mg/ml), 60 min
[10] = lyophilized cells (19 mg/ml), 17 h
[11] = resting cells, 30 min, culture 1 (OD546 3.5)

## N#C[C@H](O)c1ccccc1Cl [(R)-2-chloromandelonitrile]
[1]; T=30° C.
  hydroxy acid formed: 42%
[1]; T=35° C.
  hydroxy acid formed: 65%
[1]; T=40° C.
  hydroxy acid formed: 86%
[2]; after 2 h, cosolvent 5% DMSO
  hydroxy acid formed: approximately 40%
[2]; after 3 h, cosolvent 5% EtOH
  hydroxy acid formed: 35%
[2]; after 3 h, cosolvent 5% i-PrOH
  hydroxy acid formed: 8%
[2]; after 19 h, cosolvent 5% EtOH
  hydrolysis to form the hydroxy acid complete: 94%
[2]; after 44 h, cosolvent 5% i-PrOH
  hydroxy acid formed: 64%
[3]; T=30° C.
  hydroxy acid formed: 42%
[3]; T=40° C.
  hydroxy acid formed: 80%
[3]; T=50° C.
  hydroxy acid formed: 92%
[4]; [8]
  Conversion rate CH (cyanohydrin): 40%
  Conversion rate HA (hydroxyamide): <1%
[4]; [9]
  Conversion rate CH (cyanohydrin): 41%
  Conversion rate HA (hydroxyamide): 0%
[4]; [10]
  Conversion rate CH (cyanohydrin): 43%
  Conversion rate HA (hydroxyamide): <1%
[4]; [11]
  Conversion rate CH (cyanohydrin): 100%
  Conversion rate HA (hydroxyamide): 2%
[4]; resting cells, 60 min, culture 1 (OD546 3.5)
  Conversion rate HA (hydroxyamide): 4%
[4]; resting cells, 17 h, culture 1 (OD546 3.5)
  Conversion rate HA (hydroxyamide): 42%
[5]; after 2 h, 10 g/l (60 mM)
  hydroxy acid formed: approximately 40%
[5]; after 18 h, 20 g/l (120 mM)
  hydroxy acid formed: 36%
[5]; after 43 h, 20 g/l (120 mM)
  hydroxy acid formed: 41%
[6]; 10 g/l (60 mM)
  hydroxy acid formed: 80%
[6]; 15 g/l (90 mM)
  hydroxy acid formed: approximately 60%

## C=C(C)C#N [methacrylonitrile]
[7]; pMS470Nhase7.3 lysate
  typical activity of crude lysates: 100-250 U/ml
[7]; pMSNhasetactac7.3 lysate
  typical activity of crude lysates: 350-500 U/ml
